Data published in PubChem BioAssay (NCI).
Where “and” joins values, the source holds several entries; their conditions need not be identical. Identical values can stand only once.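 Each compound was tested at five concentrations against cells in 96-well plates for 48 hours. GI50: concentration for 50% inhibition of growth. TGI: total growth inhibition.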

Experiments:
Test in all cases: NCI anticancer screen, dose series, 48 h
MCF7 breast = tested on: MCF7 breast
HL-60(TB) leukemia = tested on: HL-60(TB) leukemia
NCI-H23 lung = tested on: NCI-H23 lung
SNB-75 CNS = tested on: SNB-75 CNS
OVCAR-4 ovarian = tested on: OVCAR-4 ovarian
OVCAR-8 ovarian = tested on: OVCAR-8 ovarian
SK-MEL-5 melanoma = tested on: SK-MEL-5 melanoma
SK-MEL-28 melanoma = tested on: SK-MEL-28 melanoma
NCI-H460 lung = tested on: NCI-H460 lung
A498 renal = tested on: A498 renal

With `S=c1[nH]n2c(COc3ccc(Cl)cc3)nnc2s1` the TGI (MCF7 breast) was > 100 µM, the TGI (HL-60(TB) leukemia) was > 100 µM and the TGI (NCI-H23 lung) was > 100 µM. The TGI (SNB-75 CNS) was > 100 µM, the TGI (OVCAR-4 ovarian) was > 100 µM and the TGI (OVCAR-8 ovarian) was > 100 µM. The TGI (SK-MEL-5 melanoma) was > 100 µM, the TGI (SK-MEL-28 melanoma) was > 100 µM and the TGI (NCI-H460 lung) was > 100 µM.
With `CSCC(CO)NC(=O)/C=C/c1c(C)[nH]c(=O)[nH]c1=O` (stereo unspecified) the TGI (MCF7 breast) was > 609 µM, the TGI (HL-60(TB) leukemia) was > 875 µM and the TGI (NCI-H23 lung) was > 875 µM. For the same compound, the TGI (SNB-75 CNS) was > 875 µM, the TGI (OVCAR-4 ovarian) was 389 µM and the TGI (OVCAR-8 ovarian) was > 348 µM. For the same compound, the TGI (SK-MEL-5 melanoma) was > 875 µM, the TGI (A498 renal) was > 875 µM and the TGI (SK-MEL-28 melanoma) was > 875 µM. The TGI (NCI-H460 lung) was > 875 µM.
In the case of `c1ccc2c(c1)SCCc1cn[nH]c1-2`, the TGI (MCF7 breast) was > 100 µM, the TGI (HL-60(TB) leukemia) was > 100 µM and the TGI (NCI-H23 lung) was > 100 µM. The TGI (SNB-75 CNS) was > 100 µM, the TGI (OVCAR-4 ovarian) was > 100 µM and the TGI (OVCAR-8 ovarian) was > 100 µM. The TGI (SK-MEL-5 melanoma) was > 100 µM, the TGI (A498 renal) was > 100 µM and the TGI (SK-MEL-28 melanoma) was > 100 µM. For the same compound, the TGI (NCI-H460 lung) was > 100 µM.
For `O=C(Sc1n[nH]c(=O)[nH]c1=O)c1cccc2nc3ccccc3nc12`, the TGI (MCF7 breast) was > 100 µM, the TGI (HL-60(TB) leukemia) was > 100 µM and the TGI (NCI-H23 lung) was 26.8 µM. The TGI (OVCAR-4 ovarian) was > 100 µM, the TGI (OVCAR-8 ovarian) was > 100 µM and the TGI (SK-MEL-5 melanoma) was 14.5 µM. The TGI (A498 renal) was > 100 µM, the TGI (SK-MEL-28 melanoma) was 90.9 µM and the TGI (NCI-H460 lung) was > 100 µM.
With `Nc1ccc(Cn2ccc3c4c(N)nc(N)nc4ccc32)cc1` the TGI (MCF7 breast) was 14.3 µM, the TGI (HL-60(TB) leukemia) was 1.37 µM and the TGI (NCI-H23 lung) was 7.86 µM. The TGI (SNB-75 CNS) was 12.5 µM, the TGI (OVCAR-4 ovarian) was 4.75 µM and the TGI (OVCAR-8 ovarian) was 22 µM. The TGI (SK-MEL-5 melanoma) was 8.24 µM, the TGI (SK-MEL-28 melanoma) was 5.32 µM and the TGI (NCI-H460 lung) was 5.58 µM.
In the case of `CC(=O)OC1CC(OC2C(O)CC(OC3C(O)CC(OC4CCC5(C)C(CCC6C5CCC5(C)C(C7=CC(=O)OC7)CCC65O)C4)OC3C)OC2C)OC(C)C1OC1OC(CO)C(O)C(O)C1O` (stereo unspecified), the TGI (MCF7 breast) was 0.536 µM, the TGI (HL-60(TB) leukemia) was 0.0827 µM and the TGI (NCI-H23 lung) was 0.0233 µM. It also gave a TGI (SNB-75 CNS) of 0.249 µM, a TGI (OVCAR-4 ovarian) of 0.162 µM and a TGI (OVCAR-8 ovarian) of 0.139 µM. For the same compound, the TGI (SK-MEL-5 melanoma) was 0.107 µM, the TGI (A498 renal) was 0.131 µM and the TGI (SK-MEL-28 melanoma) was 0.592 µM. The TGI (NCI-H460 lung) was 0.0245 µM.
With `O=S(O)CCCSSSCCCS(=O)O` the TGI (HL-60(TB) leukemia) was > 100 µM, the TGI (NCI-H23 lung) was > 100 µM and the TGI (SNB-75 CNS) was > 100 µM. The TGI (OVCAR-4 ovarian) was > 100 µM, the TGI (A498 renal) was > 100 µM and the TGI (SK-MEL-28 melanoma) was > 100 µM. The TGI (NCI-H460 lung) was > 100 µM.
In the case of `Cc1cccc2c1Sc1ccccc1C2NC(=O)CN(C)C` (stereo unspecified), the TGI (HL-60(TB) leukemia) was > 100 µM, the TGI (NCI-H23 lung) was > 100 µM and the TGI (SNB-75 CNS) was 86.7 µM. The TGI (OVCAR-4 ovarian) was > 100 µM, the TGI (OVCAR-8 ovarian) was > 100 µM and the TGI (SK-MEL-5 melanoma) was > 100 µM. The TGI (SK-MEL-28 melanoma) was > 100 µM and the TGI (NCI-H460 lung) was > 100 µM.
With `COCCNCc1ccc(-c2cc3nccc(Oc4ccc(NC(=O)C5(C(=O)Nc6ccc(F)cc6)CC5)cc4F)c3s2)nc1` the GI50 (MCF7 breast) was 1.22 µM, the TGI (MCF7 breast) was 3.58 µM and the GI50 (HL-60(TB) leukemia) was 2.29 µM. It also gave a TGI (HL-60(TB) leukemia) of 5.12 µM, a GI50 (SNB-75 CNS) of 1.03 µM and a TGI (SNB-75 CNS) of 2.26 µM. The GI50 (OVCAR-4 ovarian) was 1.67 µM, the TGI (OVCAR-4 ovarian) was 4.79 µM and the GI50 (OVCAR-8 ovarian) was 2.11 µM. It also gave a TGI (OVCAR-8 ovarian) of 5.13 µM, a GI50 (NCI-H460 lung) of 1.66 µM and a TGI (NCI-H460 lung) of 3.4 µM.
With `CN(c1ccccc1)c1nc(=[N+]2CCCC2)ss1` the TGI (HL-60(TB) leukemia) was > 100 µM, the TGI (SNB-75 CNS) was > 100 µM and the TGI (OVCAR-4 ovarian) was > 100 µM. For the same compound, the TGI (OVCAR-8 ovarian) was > 100 µM, the TGI (SK-MEL-5 melanoma) was > 100 µM and the TGI (A498 renal) was > 100 µM. The TGI (SK-MEL-28 melanoma) was > 100 µM and the TGI (NCI-H460 lung) was > 100 µM.
For `CO/C=C1\OC(=O)C=C1OC`, the TGI (MCF7 breast) was > 100 µM, the TGI (HL-60(TB) leukemia) was > 100 µM and the TGI (NCI-H23 lung) was > 100 µM. For the same compound, the TGI (SNB-75 CNS) was > 100 µM, the TGI (OVCAR-4 ovarian) was > 100 µM and the TGI (OVCAR-8 ovarian) was > 100 µM. For the same compound, the TGI (SK-MEL-5 melanoma) was > 100 µM, the TGI (A498 renal) was > 100 µM and the TGI (SK-MEL-28 melanoma) was > 100 µM. For the same compound, the TGI (NCI-H460 lung) was > 100 µM.
With `NNC(=O)c1cc([N+](=O)[O-])ccc1NC(=O)C12CC3CC(CC(C3)C1)C2` the TGI (MCF7 breast) was > 100 µM, the TGI (HL-60(TB) leukemia) was 22.1 µM and the TGI (NCI-H23 lung) was > 100 µM. The TGI (OVCAR-4 ovarian) was 23 µM, the TGI (OVCAR-8 ovarian) was > 100 µM and the TGI (SK-MEL-5 melanoma) was > 100 µM. The TGI (NCI-H460 lung) was 62.8 µM.
In the case of `Cc1ccc(Nc2nc(=O)c3c([nH]c4ccccc43)s2)cc1`, the TGI (HL-60(TB) leukemia) was 36.5 µM, the TGI (SNB-75 CNS) was 31.6 µM and the TGI (OVCAR-4 ovarian) was 55.4 µM. For the same compound, the TGI (OVCAR-8 ovarian) was 28.7 µM, the TGI (SK-MEL-5 melanoma) was 20.8 µM and the TGI (A498 renal) was 37.4 µM. The TGI (SK-MEL-28 melanoma) was > 100 µM and the TGI (NCI-H460 lung) was 25.7 µM.
`CN(C)c1cccc(OC(=O)NCCCl)c1` was tested, and the TGI (MCF7 breast) was > 100 µM, the TGI (HL-60(TB) leukemia) was > 100 µM and the TGI (NCI-H23 lung) was > 100 µM. The GI50 (SNB-75 CNS) was > 100 µM, the TGI (SNB-75 CNS) was > 100 µM and the TGI (OVCAR-4 ovarian) was > 100 µM. The TGI (OVCAR-8 ovarian) was > 100 µM, the TGI (SK-MEL-5 melanoma) was > 100 µM and the GI50 (A498 renal) was 13.9 µM. For the same compound, the TGI (A498 renal) was 93.6 µM and > 100 µM, the TGI (SK-MEL-28 melanoma) was > 100 µM and the TGI (NCI-H460 lung) was > 100 µM.
With `O=C1C(c2c(O)[nH]c3ccc(Cl)cc23)=Nc2ccccc21` the TGI (MCF7 breast) was > 22 µM, the TGI (HL-60(TB) leukemia) was > 100 µM and the TGI (NCI-H23 lung) was 40.1 µM. For the same compound, the TGI (SNB-75 CNS) was 15.5 µM, the TGI (OVCAR-4 ovarian) was 5.42 µM and the TGI (OVCAR-8 ovarian) was 21.9 µM. The TGI (SK-MEL-5 melanoma) was 17.7 µM, the TGI (A498 renal) was 13.1 µM and the TGI (SK-MEL-28 melanoma) was > 100 µM. The TGI (NCI-H460 lung) was > 100 µM.
For `c1csc(-c2ccc(CNc3c4ccccc4nc4ccccc34)cc2)c1`, the GI50 (HL-60(TB) leukemia) was 1.45 µM, the TGI (HL-60(TB) leukemia) was 3.28 µM and the GI50 (SNB-75 CNS) was 2.24 µM. It also gave a TGI (SNB-75 CNS) of 6.58 µM, a GI50 (OVCAR-4 ovarian) of 1.53 µM and a TGI (OVCAR-4 ovarian) of 3.07 µM. The GI50 (SK-MEL-5 melanoma) was 1.63 µM, the TGI (SK-MEL-5 melanoma) was 3.01 µM and the GI50 (A498 renal) was 1.22 µM. For the same compound, the TGI (A498 renal) was 2.52 µM, the GI50 (SK-MEL-28 melanoma) was 1.69 µM and the TGI (SK-MEL-28 melanoma) was 3.28 µM.
`c1ccc2c(c1)SP1Sc3ccccc3P21` (stereo unspecified) was tested, and the TGI (MCF7 breast) was > 100 µM, the TGI (HL-60(TB) leukemia) was > 100 µM and the TGI (NCI-H23 lung) was > 100 µM. For the same compound, the TGI (SNB-75 CNS) was > 100 µM, the TGI (OVCAR-4 ovarian) was > 100 µM and the TGI (OVCAR-8 ovarian) was > 100 µM. The TGI (SK-MEL-5 melanoma) was > 100 µM, the TGI (A498 renal) was > 100 µM and the TGI (SK-MEL-28 melanoma) was > 100 µM. The TGI (NCI-H460 lung) was > 100 µM.
For `CC1(C)N=C(c2ccccc2)SC12S[C@@H]1CCCC[C@H]1S2`, the TGI (MCF7 breast) was > 100 µM, the TGI (HL-60(TB) leukemia) was > 100 µM and the TGI (NCI-H23 lung) was 31.3 µM. For the same compound, the TGI (SNB-75 CNS) was > 100 µM, the TGI (OVCAR-4 ovarian) was > 100 µM and the TGI (OVCAR-8 ovarian) was > 100 µM. The TGI (SK-MEL-5 melanoma) was 54.5 µM, the TGI (A498 renal) was 33.9 µM and the TGI (SK-MEL-28 melanoma) was > 100 µM. For the same compound, the TGI (NCI-H460 lung) was > 100 µM.
